# Assay results taken from PubChem BioAssay AID1508591.
# Conditions: rat; liver microsomes; pH 7.4; 15.0 min; 1.0 µM
row,SMILES,half-life [min]
1,O=C1CCc2ccc(OCCCCN3CCN(c4cccc(Cl)c4Cl)CC3)cc2N1,2.56
2,COc1ccccc1CNc1ccc(S(=O)(=O)Nc2nccs2)cc1,2.8
3,O=C(NC[C@H]1Cn2c(-c3ccc(Cl)cc3)cnc2CO1)C1CCCC1,> 30
4,CN1CCN(C(=O)c2ccc3cc(CCNc4ncnc5ccc(C#N)cc45)ccc3c2)CC1,8.11
5,COc1cc(C(=S)N2CCN(CCO)CC2)ccc1OCc1ccc(C)cc1,3.2
6,Cc1ccc(-c2cc(C(=O)NCc3cnn(C)c3)c3cc(Br)ccc3n2)cc1,> 30
7,O=C(Nc1ccc2c(N3CCCCC3)ncnc2c1)c1cc(F)cc(F)c1,1.5
8,NC1CCC(Nc2nc(Nc3ccc(C(=O)N4CCCCC4)cc3)c3ncn(-c4cccc(F)c4)c3n2)CC1 (stereo not given),23
9,COC(=O)CNC(=O)c1nc(-c2ccc([S+](C)(=O)[O-])cc2)c2cnccn12,> 30
10,CC(C)(N)CNC(=O)CC1CCC2(CC1)OOC1(O2)C2CC3CC(C2)CC1C3 (stereo not given),> 30
11,Cc1ccc(NC(=O)c2ccncc2NS(=O)(=O)c2ccc(C)cc2)cc1,2.9
12,COc1ccccc1CN1CCNc2cc(Nc3ccccc3)ncc2C1,1.21
13,O=C(Nc1nc(-c2ccccc2)cs1)c1ccncc1NS(=O)(=O)c1c(F)cc(F)cc1F,5.7
14,Cc1nn2c(c1-c1ccccc1Oc1ccccc1)N(Cc1ccccc1O)CCC2,1.76
15,CCOc1cc2c(cc1OCC)CN(C(=O)c1cc3sccc3n1Cc1ccccc1)CC2,2.8
16,Cc1ccc(S(=O)(=O)Nc2ccc(Cl)c(C(=O)Nc3nc(-c4ccccc4)cs3)c2)cc1,18
17,CN1CCC(N(Cc2cccs2)c2ccccc2)CC1,1.37
18,COc1cccc(CN2CCNc3cc(Nc4ccccc4)ncc3C2)c1,1.58
19,OCCn1cc(-c2cnc3nnn(Cc4ccc5ncccc5c4)c3n2)cn1,> 30
20,C[C@]1(CO)CN(c2cc(C(=O)Nc3ccc4c(c3)-c3c(c(C(N)=O)nn3-c3ccc(F)cc3)CC4)c(Cl)cn2)C[C@@]1(C)CO,23.2
21,CC(C)(C)c1ccc(S(=O)(=O)c2cnc(SCC(=O)Nc3ccc(F)c(Cl)c3)[nH]c2=O)cc1,5.92
22,COCCn1ccc2c(C3=CCOCC3)nc(-c3ccc4c(c3)CNC4=O)cc21,9.18
23,Cc1ccc(-c2nnc(N3CCC(C(N)=O)CC3)s2)cc1,6.38
24,CCCCNC(=O)CN1CCN(c2ncc(NC(=O)c3ccc(Cl)cc3)cc2C(=O)O)CC1,> 30

row,SMILES,half-life [min]
1,COC(=O)Nc1nc2ccc(C(=O)c3ccccc3)cc2[nH]1,> 30
2,Cc1sc(NC(=O)Cc2ccc3c(c2)OCO3)nc1-c1ccc2c(c1)CCN2C(=O)c1ccccc1F,20
3,CCOc1ccc(CCNC(=O)c2ccnn2Cc2cccc(C)c2)cc1OCC,1.5
4,O=C1Nc2ccccc2/C1=C\c1ccc(C(=O)O)cc1,> 30
5,COc1cccc(-n2nc(C(=O)O)cc2-c2ccc(C3CCCCC3)c(Cl)c2)c1,> 30
6,Cc1ccc(S(=O)(=O)Nc2cc(C(=O)Nc3nc(-c4ccccc4)cs3)ccn2)cc1,> 30
7,COc1cccc(C(=O)Nc2nc(-c3nnn(-c4ccccc4C(F)(F)F)c3C)ns2)c1,> 30
8,Cc1noc(C)c1C(=O)N1CCC2(CC1)CCN(C(c1ccccc1)c1ccccc1)CC2,9.4
9,O=C(Cc1ccc(Cl)c(Cl)c1)Nc1ccc(S(=O)(=O)Nc2cncnc2)cc1,> 30
10,Cc1nn2c(c1-c1ccccc1-c1ccccc1)N(Cc1ccccc1)CCC2,1.23
11,O=C(Nc1cccc(S(=O)(=O)C(F)(F)F)c1)c1ccccc1NC(=O)c1ccccc1OCC(F)(F)F,> 30
12,CN(C)C(=O)c1cc2cnc(Nc3ccc(N4CCNCC4)cn3)nc2n1C1CCCC1,> 30
13,Cc1ccc(S(=O)(=O)Nc2cncc(C(=O)Nc3nc(-c4ccccc4)cs3)c2)cc1,19
14,O=C(Nc1ccccc1)C1CCN(c2nc(-c3ccc(Br)cc3)cs2)CC1,1.53
15,CCOC(=O)c1[nH]c(C)c(CCC(=O)N2CCN(c3cc(C)ccc3C)CC2)c1C,2.27
16,CS(=O)(=O)c1cccc(-c2csc(N3CCC(C(N)=O)CC3)n2)c1,> 30
17,C[C@@]1(O)[C@H](O)[C@@H](CO)O[C@H]1n1ccc(N)nc1=O,> 30
18,COc1cccc(CNc2ccc(S(=O)(=O)Nc3nccs3)cc2)c1O,> 30
19,c1ccc(Nc2cc3c(cn2)CN(Cc2ccsc2)CCN3)cc1,1.74
20,CCOC(=O)c1[nH]c(C)c(CCC(=O)N2CCN(c3cc(Cl)ccc3C)CC2)c1C,1.8
21,Cc1ccc(-n2ncc3c(NCCCn4ccnc4)ncnc32)cc1Cl,22.7
22,CCc1cccc(NC(=O)CSc2nc3ccccc3nc2N2CCCCC2)c1,1.97
23,Cc1nn2c(c1-c1ccccc1-c1ccccc1)N(Cc1ccc(C(=O)O)s1)CCC2,7.81
24,COc1ccc(CN2CCNc3cc(Nc4ccccc4)ncc3C2)cc1,3.17

row,SMILES,half-life [min]
1,Fc1ccc(CNc2ncnc3onc(-c4ccc(F)cc4)c23)cc1,28
2,Nc1nc(N)c2cc(Sc3ccc4ccccc4c3)ccc2n1,> 30
3,CCOc1ccc(CCNC(=O)c2cc3cccnc3n2Cc2cccc(C)n2)cc1OCC,1.7
4,COc1ccccc1Nc1ccnc(N2CCN(C(=O)c3ccccc3Cl)CC2)n1,7.9
5,CCOC(=O)c1c(NC(=O)CN2CCCCC2)sc2c1CCN(C(=O)OCC)C2,5.2
6,Cc1nnc(N2C(=O)c3oc4ccccc4c(=O)c3C2c2ccc(F)cc2)s1 (stereo not given),> 30
7,c1ccc(Nc2nc(NCc3ccco3)c3ccccc3n2)cc1,2.09
8,CN(C)CCCn1cc(C2=C(c3c[nH]c4ccccc34)C(=O)NC2=O)c2ccccc21,10.5
9,O=C1Nc2ccccc2/C1=C\c1ccc(O)c(Cl)c1,16
10,Cc1c(C)n(Cc2ccc(-c3ccccc3C(=O)O)cc2)c2ccc(C(=O)N[C@@H](C)c3ccc([N+](=O)[O-])cc3)cc12,> 30
11,CC(=O)c1c(C)[nH]c(C(=O)Nc2cccc([S+](=O)([O-])Nc3ccccc3C)c2)c1C,4.4
12,O=S(=O)(Nc1nccs1)c1ccc(NCc2cc(F)ccc2O)cc1,12
13,O=c1ncn2nc(Sc3ccc(F)cc3F)ccc2c1-c1c(Cl)cccc1Cl,> 30
14,Cc1ccccc1C(=O)Nc1sc2c(c1C(=O)NCc1ccco1)CCC(C(C)(C)C)C2 (stereo not given),23.9
15,CCOc1cc(=O)n2c(c1C(=O)Nc1cc(OC)c(Cl)cc1OC)CCCC2,> 30
16,Fc1cc(Nc2nc(-c3ccncc3)nc3ccccc23)ccc1-c1cccc(OC(F)(F)F)c1,> 30
17,CSc1ccc(/C=C/c2nc3ccccc3n2S(=O)(=O)c2cccc(Cl)c2)cc1,3.54
18,CC(C)CNc1ncnc2onc(-c3ccc(Cl)cc3)c12,12
19,Cn1c(=O)c2c(-c3ccc(Cl)cc3)n(CCc3ccccc3)cc2n(C)c1=O,1.11
20,COc1ccc(-c2cc(C(F)(F)F)nc(SCCC(=O)Nc3cc(C)ccc3O)n2)cc1,14.9
21,COc1ccc(C(=O)Nc2nc(-c3ccccc3)cs2)c(OC)c1,18
22,O=S(=O)(c1ccc2ccccc2c1)N1CCN(c2nc(-c3cccs3)nc3ccccc23)CC1,2.34
23,C#CCNC(=O)c1nc(-c2cccnc2)c2ccccn12,14.8
24,CCc1oc2ccccc2c1C(=O)c1cc(Br)c(O)c(Br)c1,9.75

row,SMILES,half-life [min]
1,O=C(Nc1ncc(Cc2ccc(C(F)(F)F)cc2)s1)c1ncc(-c2ccccc2)[nH]1,> 30
2,CN(Cc1ccccc1)C(=O)c1ccc(S(=O)(=O)Nc2ccccc2)cc1,1.64
3,Cc1cccc(N2CCN(C(=O)c3ccc4c(c3)C(O)CCCCCN4C)CC2)c1 (stereo not given),1.28
4,O=C(Nc1cncc(Cc2ccccc2)c1)c1ccc(-c2cccc([N+](=O)[O-])c2)o1,2.4
5,COc1cccc(CNc2ccc(S(=O)(=O)Nc3nc4ccccc4o3)cc2)c1O,> 30
6,CC(C)(C)C1CCc2nc(NC(=O)c3cccc(Cl)c3)sc2C1 (stereo not given),20
7,CSc1cc2c(s1)c1cnn(Cc3cccc(N)c3)c(=O)c1n2C,3.6
8,COc1ccccc1NC(=O)c1oc2ccccc2c1NC(=O)Cc1cccs1,6.77
9,O=S(=O)(Nc1nccs1)c1ccc(NCc2cccc3cc[nH]c23)cc1,> 30
10,CC1Oc2cc3c(-c4c(O)cc(O)c5c(O)c6c(cc45)OC(C)C(C)C6=O)c(O)cc(O)c3c(O)c2C(=O)C1C (stereo not given),> 30
11,Cc1cccc(OCC(=O)Nc2ccc3nc(Nc4cccc(Cl)c4)cc(C)c3c2)c1,> 30
12,CCN(CC)C(=O)c1sc2c(c1C)c(=O)n(Cc1ccccc1)c(=O)n2CC(=O)Nc1ccc(OC)cc1,5.16
13,Cc1cc(SCc2sc(-c3ccc(C(F)(F)F)c(F)c3)nc2C)ccc1OCC(=O)O,21
14,CC[C@@]1(O)C(=O)OCc2c1cc1n(c2=O)Cc2cc3ccccc3nc2-1,> 30
15,Cc1noc(C)c1S(=O)(=O)Nc1cnccc1C(=O)Nc1nc(-c2ccccc2)cs1,> 30
16,CC(=O)c1ccc(N2CCN(S(=O)(=O)c3ccc4[nH]c(=O)[nH]c4c3)CC2)cc1,> 30
17,FC(F)(F)c1ccccc1-c1nc(NCc2cccs2)c2ccccc2n1,2.5
18,COc1ccc(C2c3[nH]c4ccc(OC)cc4c3CCN2C(=O)Nc2ccccc2)cc1 (stereo not given),25.7
19,Cc1cc(Nc2nc(-c3ccncc3)nc3ccccc23)n[nH]1,7.3
20,CC(Nc1nc(N2CCN(S(C)(=O)=O)CC2)nc2ccccc12)c1ccccc1 (stereo not given),8.03
21,CN(C)C(=O)c1nc(-c2ccc(Cl)cc2Cl)c2cnccn12,6.29
22,COc1ccc(CNC(=O)CCCn2nc(C)c3c(C)n(-c4ccc(C)cc4)nc3c2=O)cc1OC,4.18
23,Cc1ccc(C(=O)N2CCc3c(nc4cc(-c5ccccc5)[nH]n4c3=O)C2)cn1,> 30
